Source: the NIST ThermoML archive (doi:10.1016/j.jct.2016.07.017)
Numbers after ± are expanded uncertainties.

Test: activity coefficient (dimensionless); of the first substance listed, at infinite dilution; xn = mol fraction of the nth substance listed
Conditions: 101.33 kPa, Liquid, Chromatography, x1 = 0

Row | Structure (SMILES) | activity coefficient (318.15 K) | activity coefficient (328.15 K) | activity coefficient (338.15 K) | activity coefficient (348.15 K) | activity coefficient (358.15 K)
1 | CCCCCCCCCC [decane] + CC[N+](C)(CC)CCOC.O=S(=O)([N-]S(=O)(=O)C(F)(F)F)C(F)(F)F | 82 ± 7.1 | 72.7 ± 6.3 | 65.4 ± 5.7 | 58.1 ± 5 | 52.6 ± 4.6
2 | O [water] + CC[N+](C)(CC)CCOC.O=S(=O)([N-]S(=O)(=O)C(F)(F)F)C(F)(F)F | 1.9 ± 0.16 | 1.73 ± 0.15 | 1.6 ± 0.14 | 1.46 ± 0.12 | 1.32 ± 0.11
3 | C1=CCCCC1 [cyclohexene] + CC[N+](C)(CC)CCOC.O=S(=O)([N-]S(=O)(=O)C(F)(F)F)C(F)(F)F | 5.83 ± 0.5 | 5.56 ± 0.48 | 5.33 ± 0.46 | 5.16 ± 0.45 | 4.93 ± 0.43
4 | CCCCCCCCC [nonane] + CC[N+](C)(CC)CCOC.O=S(=O)([N-]S(=O)(=O)C(F)(F)F)C(F)(F)F | 55.7 ± 4.8 | 50 ± 4.3 | 45.3 ± 3.9 | 41 ± 3.5 | 37.7 ± 3.3
5 | CCCCCC [hexane] + CC[N+](C)(CC)CCOC.O=S(=O)([N-]S(=O)(=O)C(F)(F)F)C(F)(F)F | 18.2 ± 1.6 | 16.9 ± 1.5 | 15.8 ± 1.4 | 14.9 ± 1.3 | 14 ± 1.2
6 | C1COCCO1 [1,4-dioxane] + CC[N+](C)(CC)CCOC.O=S(=O)([N-]S(=O)(=O)C(F)(F)F)C(F)(F)F | 0.66 ± 0.057 | 0.679 ± 0.058 | 0.704 ± 0.06 | 0.723 ± 0.061 | 0.734 ± 0.062
7 | CC(C)OC(C)C [diisopropyl ether] + CC[N+](C)(CC)CCOC.O=S(=O)([N-]S(=O)(=O)C(F)(F)F)C(F)(F)F | 6.4 ± 0.55 | 6.28 ± 0.54 | 6.16 ± 0.53 | 6.03 ± 0.52 | 5.88 ± 0.51
8 | CCOC(C)(C)C [2-ethoxy-2-methylpropane] + CC[N+](C)(CC)CCOC.O=S(=O)([N-]S(=O)(=O)C(F)(F)F)C(F)(F)F | 6.09 ± 0.53 | 5.94 ± 0.51 | 5.86 ± 0.51 | 5.71 ± 0.49 | 5.59 ± 0.48
9 | CCCCCCCC [octane] + CC[N+](C)(CC)CCOC.O=S(=O)([N-]S(=O)(=O)C(F)(F)F)C(F)(F)F | 38.3 ± 3.3 | 34.8 ± 3 | 31.9 ± 2.8 | 29.5 ± 2.6 | 27 ± 2.3
10 | Cc1ccc(C)cc1 [1,4-dimethylbenzene] + CC[N+](C)(CC)CCOC.O=S(=O)([N-]S(=O)(=O)C(F)(F)F)C(F)(F)F | 2.12 ± 0.18 | 2.15 ± 0.19 | 2.15 ± 0.19 | 2.17 ± 0.19 | 2.18 ± 0.19
11 | C1CCCCCCC1 [cyclooctane] + CC[N+](C)(CC)CCOC.O=S(=O)([N-]S(=O)(=O)C(F)(F)F)C(F)(F)F | 20.4 ± 1.8 | 18.6 ± 1.6 | 17 ± 1.5 | 15.7 ± 1.4 | 14.5 ± 1.3
12 | C#CCCC [1-pentyne] + CC[N+](C)(CC)CCOC.O=S(=O)([N-]S(=O)(=O)C(F)(F)F)C(F)(F)F | 2.15 ± 0.19 | 2.17 ± 0.19 | 2.18 ± 0.19 | 2.19 ± 0.19 | 2.21 ± 0.19
13 | CCC(C)(C)OC [2-methoxy-2-methylbutane] + CC[N+](C)(CC)CCOC.O=S(=O)([N-]S(=O)(=O)C(F)(F)F)C(F)(F)F | 3.87 ± 0.33 | 3.86 ± 0.33 | 3.83 ± 0.33 | 3.8 ± 0.33 | 3.76 ± 0.32
14 | CCCO [propan-1-ol] + CC[N+](C)(CC)CCOC.O=S(=O)([N-]S(=O)(=O)C(F)(F)F)C(F)(F)F | 2.26 ± 0.19 | 2.04 ± 0.18 | 1.87 ± 0.16 | 1.72 ± 0.15 | 1.59 ± 0.13
15 | CCO [ethanol] + CC[N+](C)(CC)CCOC.O=S(=O)([N-]S(=O)(=O)C(F)(F)F)C(F)(F)F | 1.77 ± 0.15 | 1.62 ± 0.14 | 1.5 ± 0.13 | 1.38 ± 0.12 | 1.28 ± 0.11
16 | C1CCOC1 [tetrahydrofuran] + CC[N+](C)(CC)CCOC.O=S(=O)([N-]S(=O)(=O)C(F)(F)F)C(F)(F)F | 0.817 ± 0.068 | 0.83 ± 0.069 | 0.845 ± 0.07 | 0.862 ± 0.072 | 0.867 ± 0.072
17 | C1CCCCCC1 [cycloheptane] + CC[N+](C)(CC)CCOC.O=S(=O)([N-]S(=O)(=O)C(F)(F)F)C(F)(F)F | 14.9 ± 1.3 | 13.7 ± 1.2 | 12.7 ± 1.1 | 11.8 ± 1 | 11 ± 1
18 | CC#N [acetonitrile] + CC[N+](C)(CC)CCOC.O=S(=O)([N-]S(=O)(=O)C(F)(F)F)C(F)(F)F | 0.488 ± 0.045 | 0.488 ± 0.045 | 0.488 ± 0.045 | 0.49 ± 0.045 | 0.49 ± 0.045
19 | CCC(C)CC [3-methylpentane] + CC[N+](C)(CC)CCOC.O=S(=O)([N-]S(=O)(=O)C(F)(F)F)C(F)(F)F | 16.1 ± 1.4 | 14.9 ± 1.3 | 14 ± 1.2 | 13.1 ± 1.1 | 12.5 ± 1.1
20 | C1CCCC1 [cyclopentane] + CC[N+](C)(CC)CCOC.O=S(=O)([N-]S(=O)(=O)C(F)(F)F)C(F)(F)F | 7.28 ± 0.63 | 6.85 ± 0.59 | 6.47 ± 0.56 | 6.12 ± 0.53 | 5.79 ± 0.5
21 | Cc1cccc(C)c1 [1,3-dimethylbenzene] + CC[N+](C)(CC)CCOC.O=S(=O)([N-]S(=O)(=O)C(F)(F)F)C(F)(F)F | 2.12 ± 0.18 | 2.14 ± 0.18 | 2.14 ± 0.18 | 2.17 ± 0.19 | 2.18 ± 0.19
22 | CCOCC [diethyl ether] + CC[N+](C)(CC)CCOC.O=S(=O)([N-]S(=O)(=O)C(F)(F)F)C(F)(F)F | 2.62 ± 0.23 | 2.6 ± 0.22 | 2.6 ± 0.22 | 2.59 ± 0.22 | 2.57 ± 0.22
23 | CC1CCCCC1 [methylcyclohexane] + CC[N+](C)(CC)CCOC.O=S(=O)([N-]S(=O)(=O)C(F)(F)F)C(F)(F)F | 14.9 ± 1.3 | 13.8 ± 1.2 | 12.9 ± 1.1 | 12 ± 1 | 11.2 ± 1
24 | CCCC(C)=O [pentan-2-one] + CC[N+](C)(CC)CCOC.O=S(=O)([N-]S(=O)(=O)C(F)(F)F)C(F)(F)F | 0.853 ± 0.071 | 0.862 ± 0.072 | 0.87 ± 0.072 | 0.884 ± 0.073 | 0.896 ± 0.074
25 | C#CCCCCC [1-heptyne] + CC[N+](C)(CC)CCOC.O=S(=O)([N-]S(=O)(=O)C(F)(F)F)C(F)(F)F | 4.47 ± 0.39 | 4.43 ± 0.38 | 4.39 ± 0.38 | 4.35 ± 0.38 | 4.29 ± 0.37
26 | COC(C)(C)C [2-methoxy-2-methylpropane] + CC[N+](C)(CC)CCOC.O=S(=O)([N-]S(=O)(=O)C(F)(F)F)C(F)(F)F | 2.62 ± 0.23 | 2.63 ± 0.23 | 2.65 ± 0.23 | 2.67 ± 0.23 | 2.67 ± 0.23
